In US11965039B2, “Compstatin analogues and their medical uses” (priority 2018, dated 2024):
Positions of bridges follow the written chain, without caps; N, C: chain ends. Non-standard residues stand in square brackets, D forms with d. Residues, ends and D or L forms follow the SMILES beside them. Trp(1-Me) = Cn1cc(C[C@H](N)C(=O)O)c2ccccc21

B1: Compound 1 (peptide)
peptide: Ac-ICIWQDWGAHRCT-NH2
modifications: disulfide 2-12
SMILES: CC[C@H](C)[C@H](NC(C)=O)C(=O)N[C@H]1CSSC[C@@H](C(=O)N[C@H](C(N)=O)[C@@H](C)O)NC(=O)[C@H](CCCNC(=N)N)NC(=O)[C@H](Cc2c[nH]cn2)NC(=O)[C@H](C)NC(=O)CNC(=O)[C@H](Cc2c[nH]c3ccccc23)NC(=O)[C@H](CC(=O)O)NC(=O)[C@H](CCC(N)=O)NC(=O)[C@H](Cc2c[nH]c3ccccc23)NC(=O)[C@H]([C@@H](C)CC)NC1=O

How the values were obtained:
[1] = Solubility test at 10 mg/mL (visual inspection and light scattering); assay type: physicochemical
[2] = test system: alternative complement pathway; test: Ex vivo alternative pathway complement activity (WIESLAB kit) after s.c. dosing in non-human primates; parameters: species or system Cynomolgus monkeys (Macaca fascicularis); settings: NHP, subcutaneous 1840 nmol/kg, FIG. 1a-f
Description: FIG. 1(a-f): Normalized “ex vivo” activity of the alternative complement pathway over time after administration of a test compound at time 0 to one or two non-human primates. Compounds were given subcutaneously at a dose of 1840 nmol/kg. Complement activity (alternative pathway) was measured using the Wieslab kit. Activity was normalized using the predose (0) sample (set to 100%) and the negative control included in the kit. Normalized activity or average normalized activity for both animals and standard deviation is shown.
Healthy male Cynomolgus monkeys (Macaca fascicularis) received single subcutaneous administrations of each test substance. Compounds were formulated in 20 mM phosphate adjusted with NaOH to pH 7.5 and mannitol for isotonicity and dosed at 1840 nmol/kg. Blood was collected from a femoral vein from each animal at the following times: Pre-dose, 1, 2, 4, 8, 24, 48, 72, 96 and 120 h (10 sampling times). Blood was collected into serum separation tubes and allowed to clot at room temperature. The tubes were centrifuged and resulting serum was aliquoted and snap-frozen over dry-ice and stored at nominally −80° C. until analysis. All NHP studies were performed in accordance with animal welfare laws and regulations, including approval of the study by a local ethical review process.
Serum isolated from non-human primates at specific time points after dosing were analyzed for alternative pathway complement activity using the Complement system Alternative Pathway WIESLAB® kit from Svar Life Science (previously Euro diagnostic AB, Sweden) following the manufacturer's protocol. Briefly, serum samples or controls were diluted in buffer and incubated in microtitre strips coated with specific activators of the alternative pathway. The wells were washed and formed C5b-9 was detected using included colorimetric reagents. Absorbance at 405 nm was measured. The percent activity of the alternative complement pathway was calculated for each animal and timepoint relative to the pre-dose activity (0 hours) of the individual animal with subtraction of the negative control. […]

[3] = test system: classical complement pathway; test: In vitro haemolysis assay (inhibition of classical complement pathway); assay type: cell-based, human; settings: human serum, sensitized sheep red blood cells; Table 3, given as upper bounds; read-out: IC50, inhibition of hemolysis
Summary of the method: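 Compound dilutions preincubated 15 min at room temperature with diluted human serum (titrated per batch for 70-90% maximal haemolysis), then antibody-sensitized sheep RBC (10^7/well) added for 30 min at 37 °C in Tris/casein buffer, pH 7.4. Stopped with EDTA; haemolysis read at 405 nm; IC50 by 4PL fit.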

[4] = molecular target: T1, Human C3 (Complement tech cat #A113c) (human, UniProt P01024 23-1663); test: cell-based or functional assay
T1 sequence (P01024 23-1663 limits assumed): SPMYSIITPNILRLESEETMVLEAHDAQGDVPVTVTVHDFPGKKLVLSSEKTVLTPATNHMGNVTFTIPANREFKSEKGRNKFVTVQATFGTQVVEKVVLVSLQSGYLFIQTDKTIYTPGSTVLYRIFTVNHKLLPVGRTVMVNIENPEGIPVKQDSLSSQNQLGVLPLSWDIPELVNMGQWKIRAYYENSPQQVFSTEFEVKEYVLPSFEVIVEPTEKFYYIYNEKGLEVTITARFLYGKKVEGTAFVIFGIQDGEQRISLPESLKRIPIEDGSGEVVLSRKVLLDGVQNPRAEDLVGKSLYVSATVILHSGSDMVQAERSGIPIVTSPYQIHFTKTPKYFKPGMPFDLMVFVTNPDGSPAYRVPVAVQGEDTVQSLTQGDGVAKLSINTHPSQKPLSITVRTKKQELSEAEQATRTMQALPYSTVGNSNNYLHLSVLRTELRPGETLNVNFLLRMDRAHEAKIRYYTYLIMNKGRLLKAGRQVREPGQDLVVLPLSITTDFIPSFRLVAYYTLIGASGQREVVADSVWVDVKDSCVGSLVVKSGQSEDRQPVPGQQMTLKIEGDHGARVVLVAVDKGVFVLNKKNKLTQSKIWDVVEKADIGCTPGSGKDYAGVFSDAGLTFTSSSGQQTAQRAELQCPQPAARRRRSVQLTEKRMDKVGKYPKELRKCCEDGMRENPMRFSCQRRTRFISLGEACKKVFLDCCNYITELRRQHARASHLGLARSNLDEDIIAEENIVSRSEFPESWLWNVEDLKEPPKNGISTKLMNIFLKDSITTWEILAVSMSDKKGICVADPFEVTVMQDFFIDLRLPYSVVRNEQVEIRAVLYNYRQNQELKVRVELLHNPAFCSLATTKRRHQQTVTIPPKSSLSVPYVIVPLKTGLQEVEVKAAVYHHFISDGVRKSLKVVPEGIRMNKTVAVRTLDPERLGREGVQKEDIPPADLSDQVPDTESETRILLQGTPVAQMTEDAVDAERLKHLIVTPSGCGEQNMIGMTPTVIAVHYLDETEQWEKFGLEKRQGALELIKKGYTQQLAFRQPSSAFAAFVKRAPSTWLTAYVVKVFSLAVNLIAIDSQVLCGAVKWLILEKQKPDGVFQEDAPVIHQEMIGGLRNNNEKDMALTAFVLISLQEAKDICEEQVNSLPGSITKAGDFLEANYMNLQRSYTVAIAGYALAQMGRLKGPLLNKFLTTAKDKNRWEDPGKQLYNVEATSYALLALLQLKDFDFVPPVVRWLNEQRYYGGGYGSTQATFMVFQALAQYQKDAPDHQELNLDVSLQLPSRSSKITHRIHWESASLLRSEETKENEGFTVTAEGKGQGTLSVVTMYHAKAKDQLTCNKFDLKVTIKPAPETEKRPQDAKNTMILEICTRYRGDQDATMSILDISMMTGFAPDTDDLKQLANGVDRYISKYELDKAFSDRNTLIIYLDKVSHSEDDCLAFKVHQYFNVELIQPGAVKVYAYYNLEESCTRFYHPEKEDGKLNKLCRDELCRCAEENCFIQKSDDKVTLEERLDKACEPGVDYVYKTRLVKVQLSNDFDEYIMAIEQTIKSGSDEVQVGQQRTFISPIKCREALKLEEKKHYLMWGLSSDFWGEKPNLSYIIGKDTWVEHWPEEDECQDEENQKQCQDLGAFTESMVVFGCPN

[5] = molecular target: T1, Human C3 (Complement tech cat #A113c); test: cell-based or functional assay; remark: listed apart in the source

Row | Molecule | Solubility, Condition 1 ([1]; Acetate pH 4) | Solubility, Condition 2 ([1]; Acetate pH 5) | Solubility, Condition 3 ([1]; Phosphate pH 6) | Solubility, Condition 4 ([1]; Phosphate pH 7) | Solubility, Condition 5 ([1]; Phosphate pH 7.5) | duration of action (alternative pathway complement activity) [2] | IC50 [3] [nM] | CP hemolysis IC50 [4] [nM] | inhibition of hemolysis IC50 [5] [nM]
1 | CC[C@H](C)[C@@H]1NC(=O)[C@@H](NC(=O)[C@H](Cc2ccccc2)NC(C)=O)CSSC[C@@H](C(=O)N[C@H](C(=O)NCC(=O)N[C@@H](C)C(=O)N[C@@H](CCC(=O)O)C(=O)N[C@@H](CO)C(N)=O)[C@@H](C)O)NC(=O)[C@H](CCCNC(=N)N)NC(=O)[C@H](Cc2c[nH]cn2)NC(=O)[C@H](CCC(=O)O)NC(=O)CNC(=O)[C@H](Cc2c[nH]c3ccccc23)NC(=O)[C@H](CC(=O)O)NC(=O)[C@H](CCC(N)=O)NC(=O)[C@H](Cc2cn(C)c3ccccc23)NC1=O [Compound 61] (Ac-FCI[Trp(1-Me)]QDWGEHRCTGAES-NH2; disulfide 2-12) | − (“−” denotes lack of solubility at the given condition, as UV absorbance at 340 nm exceeds 0.1 AU and/or it is visibly turbid or contains particles) | − (“−” denotes lack of solubility at the given condition, as UV absorbance at 340 nm exceeds 0.1 AU and/or it is visibly turbid or contains particles) | + (“+” denotes solubility at the given condition, as determined by UV absorbance being less than 0.1 AU at 340 nm and the sample being clear when manually inspected) | + (“+” denotes solubility at the given condition, as determined by UV absorbance being less than 0.1 AU at 340 nm and the sample being clear when manually inspected) | + (“+” denotes solubility at the given condition, as determined by UV absorbance being less than 0.1 AU at 340 nm and the sample being clear when manually inspected) | relatively short duration of action | < 100 | – | –
2 | B1 | – | – | – | – | – | – | – | 150 | < 250
